Results on one compound are retold here after publication PMC5711494, “Sterol methyltransferase a target for anti-amoeba therapy: towards transition state analog and suicide substrate drug design” (Journal of Lipid Research, 2017).

SMILES strings stand for the structures.

The test deals with Ac24-SMT. Put plainly: Substrate kinetics and product analysis with recombinant Ac24-SMT. Type of test: biochemical, Acanthamoeba castellanii. As to the method: The SMT constructs were transformed into competent BL21(DE3) cells and transformants selected against 100 µg/ml ampicillin. Expression of the SMT constructs and partial purification of the recombinant proteins followed the procedure described previously ([19]). […] In one tube, cells were induced by addition of isopropyl thio-galactoside at a final concentration of 1 mM and in the other tube, were un-induced. Cells were harvested 2 and 4 h after induction and an equal number of cells (as calculated by OD @600 nm) from induced (+) and un-induced (−) cultures were boiled with 1X Laemmli’s buffer and analyzed by SDS-PAGE (12%). Gel was stained with Coomassie Brilliant Blue (0.2%) to establish the molecular weight and purity of the expressed protein. Total protein concentrations were determined by Bradford dye-binding procedure with bovine γ-globulin as standard. To determine the catalytic activity of the recombinant proteins, enzyme assays were carried out using soluble bacterial extract (100,000 g fraction) in 9 ml test tubes containing a total of 600 µl assay volume for 45 min (initial velocity conditions). The assay buffer contained 20 mM phosphate buffer in 5% (v/v) glycerol at pH 7.5, sterol acceptor emulsified in 12 µl Tween 80 (1.2 g/l), and the substrate tested over the concentration range 5 to 150 µM against 1.2 mg of total protein. The reaction was initiated by the addition of saturating levels of [methyl-^3H3]SAM, 0.9 µCi, at 150 µM. Incubation mixtures were saponified with methanolic potassium hydroxide and extracted with hexane (3 × 1 ml) and concentrated to dryness providing the nonsaponifiable lipid fraction; radioactivity was determined by liquid scintillation counting. […]

`CC(CCC=C1CC1)C1CC[C@@]2(C)C3=C(CCC12C)C1(C)CCC(O)C(C)(C)C1CC3` (stereo partly shown) [DHL, 26,27-dehydrolanosterol]: the “difference in catalytic competence (kcat/Km) from the natural substrate of 24-SMT” value is on record as “greater than 10 fold”. For the same compound, where the note is “GC/MS, saturating cosubstrates”, the “conversion by Ac24-SMT to product P1 (C26-monol)” value was 3% and the “conversion by Ac24-SMT to product P2 (C26-diol)” value was determined as 1%. Also, for the setting “saturating SAM 150 µM, initial velocity conditions”, the “Km (Michaelis / binding constant) as substrate of Ac24-SMT” value was approximately 33 µM.
